# Experimental data as given in paper PMC7531004, “Discovery of gramicidin A analogues with altered activities by multidimensional screening of a one-bead-one-compound library” (Nature Communications, 2020).
# Where a SMILES comes first, the peptide text is derived from it. [ ]: non-standard residue; d: D form. The star is where a group is joined. NHCH2CH2OH = OCCN*; For = O=C*
# Key:
# [1] = H+/Na+ transport assay of bead-derived peptides (one-point); format: biochemical; set-up: key: relative activity; mean of two control wells = 1.00; details: bead-derived peptide solution, EYPC/EYPG LUVs;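 also: relative to parent gramicidin A activity set to 1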
# Method in brief: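 One-point screen: peptide + pyranine-loaded LUVs, 30 min RT with vortexing, 96-well. Read-out is fluorescence intensity scaled as 100 × (Ix – I0)/(Imax – I0). Imax from Triton X-100, I0 from untreated vesicles, and the mean of the two control wells is set to 1.00.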
# [2] = test system: Streptococcus pyogenes SSI-9; assay: Antibacterial activity assay of bead-derived peptides (three concentrations); format: cell-based; set-up: key: +++: inhibition by the 640-fold diluted peptide solution; ++: inhibition by the 160-fold diluted solution; +: inhibition by the 40-fold diluted solution; -: no inhibition; details: S. pyogenes, bead-derived peptide solution, three concentrations
# Method in brief: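 Undiluted, 4-fold and 16-fold DMSO-diluted peptide stocks; S. pyogenes SSI-9, 2 × 10^5 CFU, cation-adjusted MHB (50 mg/L Ca2+, 25 mg/L Mg2+) + 5% laked horse blood; 37 °C, 18 h; readout = cell pellet visible or not.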
# [3] = cell viability/%
# Method in brief: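 P388 cells at 1 × 10^4 cells/mL (final) were exposed to library peptides (stocks diluted 250-fold in RPMI1640/10% FBS) for 92 h at 37 °C, 5% CO2. Viable cells were counted by WST-1/1-methoxy PMS (4 h), absorbance 415 nm, and expressed as cell viability (%).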
SMILES,H+/Na+ transport activity normalized against the value of 1 (1.00) [1],antibacterial activity [2],viability [3] [%]
CC(C)C[C@@H](NC(=O)[C@H](C)NC(=O)[C@H](NC(=O)[C@H](C)NC(=O)CNC(=O)[C@@H](NC=O)C(C)C)[C@H](C)O)C(=O)N[C@H](C(=O)N[C@H](CC(C)C)C(=O)N[C@@H](Cc1c[nH]c2ccccc12)C(=O)N[C@@H](C(=O)N[C@@H](Cc1c[nH]c2ccccc12)C(=O)N[C@H](CC(C)C)C(=O)N[C@@H](Cc1c[nH]c2ccccc12)C(=O)N[C@H](CC(C)C)C(=O)N[C@@H](Cc1c[nH]c2ccccc12)C(=O)NCCO)C(C)C)C(C)C [compound 4687] (For-VGA[dT]A[dL]V[dL]W[dV]W[dL]W[dL]W-NHCH2CH2OH),1.04,-,94.4
CC(C)C[C@@H](NC(=O)[C@H](Cc1c[nH]c2ccccc12)NC(=O)[C@@H](CC(C)C)NC(=O)[C@H](Cc1c[nH]c2ccccc12)NC(=O)[C@H](NC(=O)[C@H](Cc1c[nH]c2ccccc12)NC(=O)[C@H](NC(=O)[C@@H](NC(=O)[C@H](NC(=O)[C@H](C)NC(=O)[C@H](NC(=O)[C@H](C)NC(=O)CNC(=O)[C@@H](NC=O)C(C)C)[C@H](C)O)C(C)C)C(C)C)C(C)C)[C@H](C)O)C(=O)N[C@@H](Cc1c[nH]c2ccccc12)C(=O)NCCO [compound 3226] (For-VGA[dT]A[dV]V[dV]W[dT]W[dL]W[dL]W-NHCH2CH2OH),1.06,-,87.6
CC(C)C[C@@H](NC(=O)[C@H](C)NC(=O)CNC(=O)[C@@H](NC=O)C(C)C)C(=O)N[C@@H](C)C(=O)N[C@@H](C(=O)N[C@H](C(=O)N[C@@H](C(=O)N[C@@H](Cc1c[nH]c2ccccc12)C(=O)N[C@@H](C(=O)N[C@@H](Cc1c[nH]c2ccccc12)C(=O)N[C@@H](C(=O)N[C@@H](Cc1c[nH]c2ccccc12)C(=O)N[C@H](CC(C)C)C(=O)N[C@@H](Cc1c[nH]c2ccccc12)C(=O)NCCO)C(C)C)C(C)C)C(C)C)C(C)C)[C@H](C)O [compound 2475] (For-VGA[dL]A[dT]V[dV]W[dV]W[dV]W[dL]W-NHCH2CH2OH),1.13,-,100
CC(C)C[C@@H](NC(=O)[C@H](C)NC(=O)CNC(=O)[C@@H](NC=O)C(C)C)C(=O)N[C@@H](C)C(=O)N[C@@H](C(=O)N[C@H](C(=O)N[C@H](CC(C)C)C(=O)N[C@@H](Cc1c[nH]c2ccccc12)C(=O)N[C@@H](C(=O)N[C@@H](Cc1c[nH]c2ccccc12)C(=O)N[C@H](CC(C)C)C(=O)N[C@@H](Cc1c[nH]c2ccccc12)C(=O)N[C@@H](C(=O)N[C@@H](Cc1c[nH]c2ccccc12)C(=O)NCCO)C(C)C)[C@H](C)O)C(C)C)C(C)C [compound 1253] (For-VGA[dL]A[dV]V[dL]W[dT]W[dL]W[dV]W-NHCH2CH2OH),1.03,-,58.1
CNC(=O)C[C@@H](NC(=O)[C@H](Cc1c[nH]c2ccccc12)NC(=O)[C@H](NC(=O)[C@H](Cc1c[nH]c2ccccc12)NC(=O)[C@H](NC(=O)[C@H](Cc1c[nH]c2ccccc12)NC(=O)[C@@H](CC(C)C)NC(=O)[C@@H](NC(=O)[C@@H](CC(C)C)NC(=O)[C@H](C)NC(=O)[C@H](NC(=O)[C@H](C)NC(=O)CNC(=O)[C@@H](NC=O)C(C)C)C(C)C)C(C)C)C(C)C)C(C)C)C(=O)N[C@@H](Cc1c[nH]c2ccccc12)C(=O)NCCO [compound 3866] (For-VGA[dV]A[dL]V[dL]W[dV]W[dV]W[dD](NHMe)W-NHCH2CH2OH),1.31,-,100
CC(C)C[C@@H](NC(=O)[C@H](Cc1c[nH]c2ccccc12)NC(=O)[C@@H](CC(C)C)NC(=O)[C@H](Cc1c[nH]c2ccccc12)NC(=O)[C@@H](CC(C)C)NC(=O)[C@H](Cc1c[nH]c2ccccc12)NC(=O)[C@H](NC(=O)[C@@H](NC(=O)[C@H](NC(=O)[C@H](C)NC(=O)[C@H](NC(=O)[C@H](C)NC(=O)CNC(=O)[C@@H](NC=O)C(C)C)C(C)C)C(C)C)C(C)C)[C@H](C)O)C(=O)N[C@@H](Cc1c[nH]c2ccccc12)C(=O)NCCO [compound 10353] (For-VGA[dV]A[dV]V[dT]W[dL]W[dL]W[dL]W-NHCH2CH2OH),1.02,-,100
CC(C)C[C@@H](NC(=O)[C@H](C)NC(=O)CNC(=O)[C@@H](NC=O)C(C)C)C(=O)N[C@@H](C)C(=O)N[C@H](CC(C)C)C(=O)N[C@H](C(=O)N[C@H](CC(C)C)C(=O)N[C@@H](Cc1c[nH]c2ccccc12)C(=O)N[C@@H](C(=O)N[C@@H](Cc1c[nH]c2ccccc12)C(=O)N[C@@H](C(=O)N[C@@H](Cc1c[nH]c2ccccc12)C(=O)N[C@H](CC(C)C)C(=O)N[C@@H](Cc1c[nH]c2ccccc12)C(=O)NCCO)[C@H](C)O)[C@H](C)O)C(C)C [compound 3244] (For-VGA[dL]A[dL]V[dL]W[dT]W[dT]W[dL]W-NHCH2CH2OH),1.03,-,100
CC(C)C[C@@H](NC(=O)[C@H](Cc1c[nH]c2ccccc12)NC(=O)[C@H](NC(=O)[C@@H](NC(=O)[C@H](NC(=O)[C@H](C)NC(=O)[C@H](NC(=O)[C@H](C)NC(=O)CNC(=O)[C@@H](NC=O)C(C)C)C(C)C)C(C)C)C(C)C)C(C)C)C(=O)N[C@@H](Cc1c[nH]c2ccccc12)C(=O)N[C@H](CC(C)C)C(=O)N[C@@H](Cc1c[nH]c2ccccc12)C(=O)N[C@@H](C(=O)N[C@@H](Cc1c[nH]c2ccccc12)C(=O)NCCO)[C@H](C)O [compound 4603] (For-VGA[dV]A[dV]V[dV]W[dL]W[dL]W[dT]W-NHCH2CH2OH),1.12,++,100
CC(C)C[C@@H](NC(=O)[C@H](C)NC(=O)[C@H](NC(=O)[C@H](C)NC(=O)CNC(=O)[C@@H](NC=O)C(C)C)C(C)C)C(=O)N[C@H](C(=O)N[C@H](CC(C)C)C(=O)N[C@@H](Cc1c[nH]c2ccccc12)C(=O)N[C@H](CC(C)C)C(=O)N[C@@H](Cc1c[nH]c2ccccc12)C(=O)N[C@H](CC(C)C)C(=O)N[C@@H](Cc1c[nH]c2ccccc12)C(=O)N[C@@H](C(=O)N[C@@H](Cc1c[nH]c2ccccc12)C(=O)NCCO)[C@H](C)O)C(C)C [compound 129] (For-VGA[dV]A[dL]V[dL]W[dL]W[dL]W[dT]W-NHCH2CH2OH),1.05,+,100
CNC(=O)C[C@@H](NC(=O)[C@H](Cc1c[nH]c2ccccc12)NC(=O)[C@@H](CC(C)C)NC(=O)[C@@H](NC(=O)[C@@H](CC(C)C)NC(=O)[C@H](C)NC(=O)[C@@H](CC(C)C)NC(=O)[C@H](C)NC(=O)CNC(=O)[C@@H](NC=O)C(C)C)C(C)C)C(=O)N[C@@H](Cc1c[nH]c2ccccc12)C(=O)N[C@@H](C(=O)N[C@@H](Cc1c[nH]c2ccccc12)C(=O)N[C@H](CC(C)C)C(=O)N[C@@H](Cc1c[nH]c2ccccc12)C(=O)NCCO)C(C)C [compound 2432] (For-VGA[dL]A[dL]V[dL]W[dD](NHMe)W[dV]W[dL]W-NHCH2CH2OH),1.06,-,100
